According to ChEMBL document CHEMBL4613266, “Discovery and Structure Relationships of Salicylanilide Derivatives as Potent, Non-acidic P2X1 Receptor Antagonists” (J Med Chem, 2020):

Experiments:
Type in all cases: cell-based
[1] = biological target: T1, P2X purinoceptor 1 (Homo sapiens) (UniProt P51575); assay: Antagonist activity at non-desensitizing human P2X1 receptor ( P2X2/P2X1 chimera) expressed in human 1321N1 cells assessed as inhibition of ATP-induced calcium influx at 10 uM pre-incubated for 30 mins before ATP stimulation by FLIPR assay relative to control
T1 sequence (whole entry): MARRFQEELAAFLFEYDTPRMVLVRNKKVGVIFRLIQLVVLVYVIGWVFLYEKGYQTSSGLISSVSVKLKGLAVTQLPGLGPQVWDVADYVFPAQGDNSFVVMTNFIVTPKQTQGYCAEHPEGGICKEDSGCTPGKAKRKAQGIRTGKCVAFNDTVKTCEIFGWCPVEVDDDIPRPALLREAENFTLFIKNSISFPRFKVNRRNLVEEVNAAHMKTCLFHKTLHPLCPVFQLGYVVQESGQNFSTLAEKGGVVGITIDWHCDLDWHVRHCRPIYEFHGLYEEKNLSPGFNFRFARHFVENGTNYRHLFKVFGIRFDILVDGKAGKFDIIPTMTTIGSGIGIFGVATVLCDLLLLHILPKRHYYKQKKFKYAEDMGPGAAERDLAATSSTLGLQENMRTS

P2X purinoceptor 1 = P2X purinoceptor 1 (Homo sapiens, UniProt P51575); assay: Antagonist activity at non-desensitizing human P2X1 receptor ( P2X2/P2X1 chimera) expressed in human 1321N1 cells assessed as inhibition of ATP-induced calcium influx pre-incubated for 30 mins before ATP stimulation by FLIPR assay relative to control
P2X purinoceptor 3 = biological target: T2, P2X purinoceptor 3 (Homo sapiens, UniProt P56373); assay: Antagonist activity at human P2X3 receptor expressed in human 1321N1 cells assessed as inhibition of ATP-induced cytosolic calcium influx preincubated for 30 mins followed by ATP addition by Fluo-4 AM dye-based fluorescence assay
T2 sequence (P56373 whole entry): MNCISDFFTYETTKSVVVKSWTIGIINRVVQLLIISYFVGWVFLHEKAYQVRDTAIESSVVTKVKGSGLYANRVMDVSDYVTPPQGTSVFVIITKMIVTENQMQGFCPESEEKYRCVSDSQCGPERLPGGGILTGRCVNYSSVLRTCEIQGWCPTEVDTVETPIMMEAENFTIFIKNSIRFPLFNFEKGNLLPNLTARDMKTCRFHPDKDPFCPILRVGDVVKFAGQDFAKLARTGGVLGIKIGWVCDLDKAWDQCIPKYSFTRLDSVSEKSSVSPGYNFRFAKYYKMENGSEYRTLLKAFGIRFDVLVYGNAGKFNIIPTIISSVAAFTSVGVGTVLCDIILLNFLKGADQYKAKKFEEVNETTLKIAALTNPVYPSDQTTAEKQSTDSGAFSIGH

P2X purinoceptor 4 = biological target: T3, P2X purinoceptor 4 (Homo sapiens, UniProt Q99571); assay: Antagonist activity at human P2X4 receptor expressed in human 1321N1 cells assessed as inhibition of ATP-induced cytosolic calcium influx preincubated for 30 mins followed by ATP addition by Fluo-4 AM dye-based fluorescence assay
T3 sequence (Q99571 whole entry): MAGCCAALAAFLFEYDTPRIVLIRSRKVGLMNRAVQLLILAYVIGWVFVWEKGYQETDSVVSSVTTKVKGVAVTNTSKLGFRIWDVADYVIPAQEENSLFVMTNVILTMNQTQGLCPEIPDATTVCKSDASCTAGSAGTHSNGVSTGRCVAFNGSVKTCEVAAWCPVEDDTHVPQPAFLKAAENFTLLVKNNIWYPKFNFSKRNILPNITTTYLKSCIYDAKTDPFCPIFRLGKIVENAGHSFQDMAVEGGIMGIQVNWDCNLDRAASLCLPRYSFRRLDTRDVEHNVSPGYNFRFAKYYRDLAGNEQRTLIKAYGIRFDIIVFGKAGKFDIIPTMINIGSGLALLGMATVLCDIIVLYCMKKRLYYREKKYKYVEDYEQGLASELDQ

P2X purinoceptor 7 = biological target: T4, P2X purinoceptor 7 (Homo sapiens, UniProt Q99572); assay: Antagonist activity at human P2X7 receptor expressed in human 1321N1 cells assessed as inhibition of ATP-induced cytosolic calcium influx preincubated for 30 mins followed by ATP addition by Fluo-4 AM dye-based fluorescence assay
T4 sequence (Q99572 whole entry): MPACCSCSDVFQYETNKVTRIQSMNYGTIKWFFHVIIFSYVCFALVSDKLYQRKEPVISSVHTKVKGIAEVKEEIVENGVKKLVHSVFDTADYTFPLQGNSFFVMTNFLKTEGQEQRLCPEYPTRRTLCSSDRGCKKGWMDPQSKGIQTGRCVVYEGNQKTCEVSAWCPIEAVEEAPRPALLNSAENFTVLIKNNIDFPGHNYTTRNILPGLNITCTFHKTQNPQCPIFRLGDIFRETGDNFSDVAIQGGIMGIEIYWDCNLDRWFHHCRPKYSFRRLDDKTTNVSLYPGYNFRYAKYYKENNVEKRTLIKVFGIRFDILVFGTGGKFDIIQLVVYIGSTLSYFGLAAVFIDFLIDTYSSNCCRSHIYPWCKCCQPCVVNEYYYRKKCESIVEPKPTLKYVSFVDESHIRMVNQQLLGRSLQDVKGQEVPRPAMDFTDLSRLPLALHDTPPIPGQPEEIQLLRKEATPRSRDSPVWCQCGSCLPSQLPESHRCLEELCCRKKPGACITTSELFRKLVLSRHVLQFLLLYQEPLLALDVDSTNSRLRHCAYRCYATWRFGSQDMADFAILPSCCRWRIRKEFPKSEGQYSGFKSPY

P2X purinoceptor 2 = biological target: T5, P2X purinoceptor 2 (Homo sapiens, UniProt Q9UBL9); assay: Antagonist activity at human P2X2 receptor expressed in human 1321N1 cells assessed as inhibition of ATP-induced cytosolic calcium influx preincubated for 30 mins followed by ATP addition by Fluo-4 AM dye-based fluorescence assay
T5 sequence (Q9UBL9 whole entry): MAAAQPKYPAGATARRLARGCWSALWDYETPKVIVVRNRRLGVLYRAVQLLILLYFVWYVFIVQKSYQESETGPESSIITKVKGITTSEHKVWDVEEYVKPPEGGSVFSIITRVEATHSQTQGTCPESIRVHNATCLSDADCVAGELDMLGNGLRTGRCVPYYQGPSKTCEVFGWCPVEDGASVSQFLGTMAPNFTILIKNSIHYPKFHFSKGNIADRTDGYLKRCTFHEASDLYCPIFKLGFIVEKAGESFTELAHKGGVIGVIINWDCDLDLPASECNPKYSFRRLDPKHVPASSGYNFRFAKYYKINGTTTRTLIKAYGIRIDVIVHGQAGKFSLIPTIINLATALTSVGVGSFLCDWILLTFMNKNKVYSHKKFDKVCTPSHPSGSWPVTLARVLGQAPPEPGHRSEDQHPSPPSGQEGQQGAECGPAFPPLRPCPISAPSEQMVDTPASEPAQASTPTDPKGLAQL

[2] = biological target: T6, P2X purinoceptor 3 (Homo sapiens) (UniProt P56373); assay: Antagonist activity at human P2X3 receptor expressed in human 1321N1 cells assessed as inhibition of ATP-induced cytosolic calcium influx at 10 uM preincubated for 30 mins followed by ATP addition by Fluo-4 AM dye-based fluorescence assay relative to control
T6 sequence (whole entry): T2 sequence (P56373 whole entry)

[3] = biological target: T7, P2X purinoceptor 2 (Homo sapiens) (UniProt Q9UBL9); assay: Antagonist activity at human P2X2 receptor expressed in human 1321N1 cells assessed as inhibition of ATP-induced cytosolic calcium influx at 10 uM preincubated for 30 mins followed by ATP addition by Fluo-4 AM dye-based fluorescence assay relative to control
T7 sequence (whole entry): T5 sequence (Q9UBL9 whole entry)

SMILES | inhibition [1] [%] | IC50 (P2X purinoceptor 1) [nM] | also measured
Cc1cccc(C(=O)Nc2cc(C(F)(F)F)cc(C(F)(F)F)c2)c1O | 102 | 655 | 
O=C(Nc1cc(C(F)(F)F)cc(C(F)(F)F)c1)c1cc([N+](=O)[O-])ccc1O | 99 | 2530 | 
O=C(Nc1ccc2cc[nH]c2c1)c1ccccc1O | 11 | > 10000 | 
O=C(Nc1ccccc1C(F)(F)F)c1cc(Cl)ccc1O | 28 | > 10000 | 
O=C(Nc1cccnc1)c1ccccc1O | 3 | > 10000 | 
O=C(Nc1cc([N+](=O)[O-])cc(C(F)(F)F)c1)c1cc(Cl)ccc1O | 81 | 31.6 | IC50 (P2X purinoceptor 3): > 10000 nM; IC50 (P2X purinoceptor 4): 42.6 nM; IC50 (P2X purinoceptor 7): 143 nM; IC50 (P2X purinoceptor 2): > 10000 nM; inhibition [2]: 16%; inhibition [3]: 5%
O=C(Nc1ccc2ncccc2c1)c1ccccc1O | 28 | > 10000 | 
O=C(Nc1cc(C(F)(F)F)cc(C(F)(F)F)c1)c1ccccc1CO | 37 | > 10000 | 
O=C(Nc1cc(C(F)(F)F)cc(C(F)(F)F)c1)c1c(O)cccc1O | 75 | 8000 | 
COc1cc(NC(=O)c2cc(Cl)ccc2O)cc(OC)c1 | 80 | 915 | 
CN1CCN(C(=O)Nc2cc(C(F)(F)F)cc(C(F)(F)F)c2)C1=O | 0 | > 10000 | 
O=C(Nc1cc(C(F)(F)F)cc(C(F)(F)F)c1)c1cnccc1O | 31 | > 10000 | 
O=C(Nc1cc([N+](=O)[O-])cc([N+](=O)[O-])c1)c1cc(Cl)ccc1O | 62 | 4350 | 
O=C(Nc1cccc(C(F)(F)F)c1)c1ccccc1O [SALFLUVERINE] | 75 | 1300 | 
O=C(Nc1cc(Cl)ccc1O)c1cc(C(F)(F)F)cc(C(F)(F)F)c1 | 48 | ≥ 10000 | 
NS(=O)(=O)c1cccc(NC(=O)c2ccccc2O)c1 | 21 | > 10000 | 
O=C(Nc1cc(C(F)(F)F)cc(C(F)(F)F)c1)c1cc(O)ccc1O | 109 | 3410 | 
O=C(Nc1cccc([N+](=O)[O-])c1)c1cc(Cl)ccc1O | 65 | 172 | 
Cc1cc(C)cc(NC(=O)c2cc(Cl)ccc2O)c1 | 64 | 323 | 
O=C(Nc1cc(C(F)(F)F)cc(C(F)(F)F)c1)c1cc(F)ccc1O | 96 | 1660 | 
C#Cc1cccc(NC(=O)c2cc(Cl)ccc2O)c1 | 60 | 1340 | 
O=C(Nc1cc(O)cc(O)c1)c1cc(Cl)ccc1O | 4 | > 10000 | 

SMILES | inhibition [1] [%] | IC50 (P2X purinoceptor 1) [nM] | also measured
Oc1ccc(Cl)cc1CNc1cc(C(F)(F)F)cc(C(F)(F)F)c1 | 122 | 3820 | 
O=C(Nc1cc(C(F)(F)F)cc(C(F)(F)F)c1)c1cccc(Cl)c1 | 82 | 139000 | 
CC(C)(C)c1cccc(NC(=O)c2cc(Cl)ccc2O)c1 | 100 | 567 | 
O=C(NCc1cc(C(F)(F)F)cc(C(F)(F)F)c1)c1cc(Cl)ccc1O | 111 | 1530 | 
O=C(Nc1cc(C(F)(F)F)cc(C(F)(F)F)c1)c1ccccc1Cl | 100 | 539000 | 
CN(C(=O)c1cc(Cl)ccc1O)c1cc(C(F)(F)F)cc(C(F)(F)F)c1 | 88 | 4060 | 
O=C(Nc1cc(C(F)(F)F)cc(C(F)(F)F)c1)c1cccc(C(F)(F)F)c1 | 63 | 7180 | 
O=C(Nc1cc(C(F)(F)F)cc(C(F)(F)F)c1)c1cccc(O)c1 | 100 | 4910 | 
O=C(Nc1cc(C(F)(F)F)cc(C(F)(F)F)c1)c1ccc2ccccc2c1O |  | 341 | IC50 (P2X purinoceptor 4): 729 nM; IC50 (P2X purinoceptor 7): 797 nM; IC50 (P2X purinoceptor 2): > 10000 nM
Nc1ccccc1C(=O)Nc1cc(C(F)(F)F)cc(C(F)(F)F)c1 | 67 | 9930 | 
O=C(Nc1ccc(F)cc1)c1cc(Cl)ccc1O | 93 | 907 | 
Cc1ccc(O)c(C(=O)Nc2cc(C(F)(F)F)cc(C(F)(F)F)c2)c1 | 91 | 236 | 
O=C(Nc1ccc([N+](=O)[O-])cc1)c1cc(Cl)ccc1O | 43 |  | 
O=C(Nc1ccc(Cl)cc1)c1cc(Cl)ccc1O | 55 | 199 | 
COc1ccc(O)c(C(=O)Nc2cc(C(F)(F)F)cc(C(F)(F)F)c2)c1 | 91 | 755 | 
O=C(Nc1cc(C(F)(F)F)cc(C(F)(F)F)c1)c1ccncc1O | 60 | 5250 | 
O=C(CNc1cc(C(F)(F)F)cc(C(F)(F)F)c1)c1cc(Cl)ccc1O | 104 | 1790 | 
N#Cc1ccc(NC(=O)c2cc(Cl)ccc2O)cc1 | 38 | > 10000 | 
O=C(Nc1cc(C(F)(F)F)cc(C(F)(F)F)c1)c1ccccc1[N+](=O)[O-] | 61 | 8600 | 
O=C(Nc1cc(C(F)(F)F)cc(C(F)(F)F)c1)c1cccc([N+](=O)[O-])c1O | 112 | 869 | 
O=C(Nc1cccc(S(=O)(=O)C(F)(F)F)c1)c1cc(Cl)ccc1O | 83 | 335 | 
O=C(Nc1cc(C(F)(F)F)cc(C(F)(F)F)c1)c1cccnc1O | 9 | > 10000 | 
